Assay results taken from PubChem BioAssay (NCI).
“And” between values parts separate entries of the source, which are not always exact repeats. Equal values may be shown once.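 Cultured in 96-well plates, cells were exposed to test compound for 48 hours across five concentrations. GI50: concentration for 50% inhibition of growth. TGI is the concentration that stops growth completely.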

What was measured:
Test in all cases: growth of human tumour cells (NCI), 48 h
COLO 205 colon = test system: COLO 205 colon
SN12C renal = test system: SN12C renal
CCRF-CEM leukemia = test system: CCRF-CEM leukemia
A498 renal = test system: A498 renal
CAKI-1 renal = test system: CAKI-1 renal
786-0 renal = test system: 786-0 renal
TK-10 renal = test system: TK-10 renal
IGROV1 ovarian = test system: IGROV1 ovarian
K-562 leukemia = test system: K-562 leukemia
OVCAR-4 ovarian = test system: OVCAR-4 ovarian
HT29 colon = test system: HT29 colon
UO-31 renal = test system: UO-31 renal
HOP-62 NSCLC = test system: HOP-62 NSCLC
MCF7 breast = test system: MCF7 breast
RPMI-8226 leukemia = test system: RPMI-8226 leukemia
SK-MEL-5 melanoma = test system: SK-MEL-5 melanoma
NCI-H460 lung = test system: NCI-H460 lung
HL-60(TB) leukemia = test system: HL-60(TB) leukemia
MDA-MB-435 = test system: MDA-MB-435
SK-OV-3 ovarian = test system: SK-OV-3 ovarian
HS 578T breast = test system: HS 578T breast
BT-549 breast = test system: BT-549 breast
SNB-19 CNS = test system: SNB-19 CNS
HCT-15 colon = test system: HCT-15 colon
MOLT-4 leukemia = test system: MOLT-4 leukemia
OVCAR-3 ovarian = test system: OVCAR-3 ovarian
NCI/ADR-RES ovarian = test system: NCI/ADR-RES ovarian
HCC-2998 colon = test system: HCC-2998 colon
OVCAR-5 ovarian = test system: OVCAR-5 ovarian
NCI-H23 lung = test system: NCI-H23 lung
A549 NSCLC = test system: A549 NSCLC
T-47D breast = test system: T-47D breast
ACHN renal = test system: ACHN renal
SK-MEL-2 melanoma = test system: SK-MEL-2 melanoma
LOX IMVI melanoma = test system: LOX IMVI melanoma
UACC-257 melanoma = test system: UACC-257 melanoma
M14 melanoma = test system: M14 melanoma
EKVX NSCLC = test system: EKVX NSCLC
SNB-75 CNS = test system: SNB-75 CNS
SF-295 CNS = test system: SF-295 CNS
MDA-N = test system: MDA-N
SF-539 CNS = test system: SF-539 CNS
U251 CNS = test system: U251 CNS
NCI-H226 lung = test system: NCI-H226 lung
KM12 colon = test system: KM12 colon
SK-MEL-28 melanoma = test system: SK-MEL-28 melanoma
RXF 393 renal = test system: RXF 393 renal
OVCAR-8 ovarian = test system: OVCAR-8 ovarian
SW-620 colon = test system: SW-620 colon
UACC-62 melanoma = test system: UACC-62 melanoma
MDA-MB-231 breast = test system: MDA-MB-231 breast
PC-3 prostate = test system: PC-3 prostate
HOP-92 NSCLC = test system: HOP-92 NSCLC
MALME-3M melanoma = test system: MALME-3M melanoma
SF-268 CNS = test system: SF-268 CNS

## CC(C)NCCCNc1c2ccccc2nc2cccc([N+](=O)[O-])c12
COLO 205 colon
  TGI: 13 nM and 16.8 nM
SN12C renal
  TGI: 150 nM
CCRF-CEM leukemia
  GI50: 11.8 nM
  TGI: 85.4 nM and 64.4 nM
A498 renal
  GI50: 12.3 nM
  TGI: 32.8 nM and 43.2 nM
CAKI-1 renal
  TGI: 239 nM
786-0 renal
  GI50: 10.8 nM
  TGI: 32.5 nM and 70.4 nM
TK-10 renal
  TGI: 463 nM and 70.8 nM
IGROV1 ovarian
  TGI: 35.2 nM and 134 nM
K-562 leukemia
  TGI: 16.9 nM and 10.4 nM
OVCAR-4 ovarian
  TGI: 23.6 nM
HT29 colon
  TGI: 21.6 nM
UO-31 renal
  GI50: 30.6 nM
  TGI: 451 nM and 148 nM
HOP-62 NSCLC
  TGI: 80.9 nM and 24.4 nM
MCF7 breast
  TGI: 43 nM
RPMI-8226 leukemia
  TGI: 7.96 nM and 26.2 nM
SK-MEL-5 melanoma
  TGI: 16.3 nM
NCI-H460 lung
  TGI: 103 nM
HL-60(TB) leukemia
  GI50: 10.2 nM
MDA-MB-435
  TGI: 22.5 nM and 18.6 nM
SK-OV-3 ovarian
  TGI: 394 nM and 273 nM
HS 578T breast
  GI50: 21.8 nM
  TGI: 290 nM and 113 nM
BT-549 breast
  GI50: 22.2 nM
  TGI: 157 nM and 59.9 nM
SNB-19 CNS
  GI50: 11.2 nM
HCT-15 colon
  TGI: > 100000 nM
MOLT-4 leukemia
  TGI: 25.4 nM and 16.9 nM
OVCAR-3 ovarian
  TGI: 37 nM
NCI/ADR-RES ovarian
  GI50: 1860 nM
  TGI: 4650 nM and 24400 nM
HCC-2998 colon
  TGI: 16.5 nM
OVCAR-5 ovarian
  TGI: 145 nM and 18.3 nM
NCI-H23 lung
  TGI: 9.08 nM
A549 NSCLC
  TGI: 150 nM and 58.5 nM
T-47D breast
  TGI: 58.2 nM and 96.8 nM
ACHN renal
  TGI: 57 nM and 106 nM
SK-MEL-2 melanoma
  TGI: 29.9 nM
LOX IMVI melanoma
  GI50: 15.3 nM
  TGI: 25.6 nM and 116 nM
UACC-257 melanoma
  GI50: 19.4 nM
  TGI: 170 nM and 45.8 nM
M14 melanoma
  TGI: 24.4 nM
EKVX NSCLC
  GI50: 37.2 nM
  TGI: 79.1 nM and 268 nM
SNB-75 CNS
  GI50: 16.1 nM
  TGI: 97.4 nM and 45.2 nM
SF-295 CNS
  TGI: 45.1 nM and 173 nM
MDA-N
  TGI: 29.2 nM
SF-539 CNS
  GI50: 14.2 nM
  TGI: 228 nM and 40.9 nM
U251 CNS
  TGI: 119 nM and 49.6 nM
NCI-H226 lung
  TGI: 90.3 nM
KM12 colon
  TGI: 40.9 nM and 28.4 nM
SK-MEL-28 melanoma
  GI50: 24.4 nM
  TGI: 289 nM and 74.8 nM
RXF 393 renal
  TGI: 18.3 nM
OVCAR-8 ovarian
  TGI: 55.5 nM
SW-620 colon
  TGI: 209 nM and 237 nM
UACC-62 melanoma
  TGI: 37.4 nM and 31 nM
MDA-MB-231 breast
  GI50: 10.7 nM
  TGI: 47 nM and 114 nM
PC-3 prostate
  TGI: 38 nM
HOP-92 NSCLC
  TGI: 39.7 nM
MALME-3M melanoma
  GI50: 12 nM
  TGI: 27.2 nM and 47.1 nM
SF-268 CNS
  GI50: 16.7 nM
  TGI: 32.3 nM and 182 nM
